# Read-outs that look alike come from different tables or passages of the source.
# What was measured:
# Type in all cases: cell-based, rat
# P-glycoprotein (PgP) = P-glycoprotein (PgP) binding: MTT with and without cyclosporin A; conditions: for % Difference: 1-20% low, 20-50% moderate, 50-100% high PgP interaction
# Method: Several antiviral drugs are substrates for P-glycoprotein transporter (PgP).
# P-glycoprotein (PgP) transport proteins are expressed in the bile canalicular membrane of normal liver. However, in neoplastic cells it is not uncommon to have expression of this transporter system in the plasma membrane. […] The existence of these transporters was evaluated with the Calcein-AM assay and with known substrates of PgP.
# [1] = Intracellular total glutathione (GSH); conditions: rat
# Method: (§1) One test compound (Compound A) was received as dry powder and evaluated for potential cytotoxicity in a battery of in vitro assays. The compound was tested using both rat cardiomyocytes (CM) from rat neonates and a rat hepatoma (H4IIE) cell line. […] The cell supernatant or the cells themselves were harvested for biochemical analysis. General cytotoxicity was evaluated by monitoring membrane integrity, mitochondrial function, cell proliferation, oxidative stress, and apoptosis. In addition, interaction with P-glycoprotein (PgP) on H4IIE cells and solubility of the test compound were also assessed. The means of each exposure group (n=3-7) were calculated for each assay performed.
# [2] = Cell number (propidium iodide); conditions: rat
# Method: as §1
# (§2) Experimental Protocol: The test compound was provided and stored at 4° C. until needed. Dosing solutions were prepared in complete culture medium. The rat hepatoma (H4IIE) cell line was used as the test system.
# Cell Proliferation: Cell proliferation in each well was measured with propidium iodide (PI). This specific nucleic acid binding dye fluoresces when intercalated within the nucleic acids. The 15 nm shift enhances PI fluorescence approximately 20 times while the excitation maxima are shifted 30-40 nm. During method development experiments, it was determined that Triton-X-100 was the best solution to permeabilize the H4IIE cells thereby allowing the PI access to intracellular RNA and DNA. Fluorescence was measured using a Packard Fusion plate reader or equivalent reader at 540 nm excitation and 610 nm emission.
# Cell Proliferation: After incubation, the test compound was removed and Triton X-100 solution containing propidium iodide is added. The plate was incubated and read on a fluorescent plate reader. Data was collected as relative fluorescent units (RFU). The blank was subtracted from the final well RFU. It represents the average of the first and last columns which contain no cells on that particular plate. The controls are untreated cells allowed to grow on the same plate. The compounds are represented by several separate RFU data points for each of the tested concentrations. The percent change relative to controls was calculated by dividing the average RFU by the control cell RFU and multiplying by 100.
# MTT reduction = conditions: rat
# Method: as §1, §2
# Tetrazolium Dye Reduction: 3-[4,5-dimethylthiazol-2-yl]
# Intracellular ATP levels = assay: Intracellular ATP levels
# Method: as §1
# Intracellular ATP Levels: Cellular Adenosine triphosphate (ATP) was determined with an assay based on a reaction between ATP+D-luciferin+oxygen catalyzed by luciferase to yield Oxyluciferin+AMP+PPi+CO2+light. The emitted light is proportional to the amount of ATP present. […] In addition, a unique cell lysis reagent inhibits endogenous ATPases and therefore stabilizes cellular ATP by preventing its degradation to ADP. ATP is present in all-living cells and declines rapidly upon cell death. In addition, this assay in combination with the MTT assay provides an indicator of mitochondrial activity and energy status of the cell.
# Plates were analyzed immediately or stored at −20° C. until needed. On the day of analysis, the plates were thawed and calibration curve prepared with ATP in the same liquid matrix as samples. ATP was quantified by adding ATP substrate solution and then reading luminescence on a Packard Fusion Luminescence or equivalent plate reader.
# Intracellular ATP Levels: ATP levels in treated cells could be determined by using the regression coefficients obtained from the linear regression analysis of the calibration curve. Thus, values could be expressed as pmoles ATP/million cells. Background corrected luminescence was used to determine percent change relative to controls by dividing treated values by control values and multiplying by 100.
# [3] = Intracellular total glutathione (GSH); conditions: rat; remark: listed apart in the source
# Method: as §1, §2
# [4] = H4IIE 24 HR, MTT, 50 μM, with cyclosporin A
# [5] = H4IIE 24 HR, MTT, 50 μM, without CSA
# [6] = neonatal rat cardiomyocytes, CM, 24 HR, read-out: Total GSH TC50
# [7] = H4IIE rat hepatoma cells, H4IIE, 24 HR exposure, read-out: Cell Number TC50
# [8] = H4IIE rat hepatoma cells, H4IIE, 24 HR exposure, read-out: MTT TC50
# [9] = neonatal rat cardiomyocytes, rat cardiomyocytes (CM), 24 HR exposure, read-out: ATP TC50
# [10] = H4IIE rat hepatoma cells, H4IIE, 24 HR, read-out: Total GSH TC50
Structure (SMILES),% Control (Compound + CSA) (P-glycoprotein (PgP); [4]) [%],% Control (Compound) (P-glycoprotein (PgP); [5]) [%],% Difference (P-glycoprotein (PgP); H4IIE 24 HR) [%],CC50 at 24 h [1] [µM],CC50 at 24 h ([2]; Cell Number TC50) [µM],CC50 at 24 h (MTT reduction; MTT TC50) [µM],CC50 at 24 h (Intracellular ATP levels; rat) [µM],CC50 at 24 h ([3]; Total GSH TC50) [µM],other results
"COc1cccc2c1C(=O)c1c(O)c3c(c(O)c1C2=O)C[C@@](O)(C(=O)CO)C[C@@H]3O[C@H]1C[C@H](N)[C@H](O)[C@H](C)O1 [ADRIAMYCIN, Adriamycin]",0.0,8.0,76.9,1,18,13,6,28,"% Control (Compound + CSA) (P-glycoprotein (PgP); H4IIE 24 HR, MTT, 50 μM, with cyclosporin A, listed as DOXORUBICIN): 13.7%; % Control (Compound) (P-glycoprotein (PgP); H4IIE 24 HR, MTT, 50 μM, without CSA, listed as DOXORUBICIN): 59.3%; CC50 at 1 h [1]: > 300 µM; CC50 at 3 h [1]: 61 µM; CC50 at 6 h [1]: 23 µM; CC50 at 1 h (Intracellular ATP levels; rat): > 300 µM; CC50 at 3 h (Intracellular ATP levels; rat): 62 µM; CC50 at 6 h (Intracellular ATP levels; rat): 29 µM"
"O=C1c2c(O)ccc(O)c2C(=O)c2c(NCCNCCO)ccc(NCCNCCO)c21 [MITOXANTRONE, mitoxantrone]",10.4,69.9,85.1,< 1,< 1,> 300,2,247,–
"COc1cccc2c1C(=O)c1c(O)c3c(c(O)c1C2=O)C[C@@](O)(C(=O)CO)C[C@@H]3O[C@H]1C[C@H](N)[C@H](O[C@@H]2CCCCO2)[C@H](C)O1 [PIRARUBICIN, pirarubicin]",33.6,51.9,35.2,–,–,–,–,–,"CC50 at 24 h [1, 6]: 6 µM; CC50 at 24 h [2, 7]: 8 µM; CC50 at 24 h (MTT reduction; [8]): 16 µM; CC50 at 24 h (Intracellular ATP levels; [9]): 7 µM; CC50 at 24 h [3, 10]: 17 µM"
"COc1cccc2c1C(=O)c1c(O)c3c(c(O)c1C2=O)C[C@@](O)(C(C)=O)C[C@@H]3O[C@H]1C[C@H](N)[C@H](O)[C@H](C)O1 [DAUNORUBICIN, daunorubicin]",–,–,–,< 1,–,–,9,–,% Control (Compound + CSA) (P-glycoprotein (PgP)): 5.5%; % Control (Compound) (P-glycoprotein (PgP)): 9.3%; CC50 at 24 h [2]: 8 µM; CC50 at 24 h (MTT reduction): 14 µM; CC50 at 24 h [3]: 16 µM
"CC(C)Nc1cccnc1N1CCN(C(=O)c2cc3cc(NS(C)(=O)=O)ccc3[nH]2)CC1 [DELAVIRDINE, delavirdine]",62.3,89.8,30.7,> 300,> 300,218,166,96,–
"COc1cccc2c1C(=O)c1c(O)c3c(c(O)c1C2=O)C[C@@](O)(C(=O)CO)C[C@@H]3O[C@H]1C[C@H](N)[C@@H](O)[C@H](C)O1 [EPIRUBICIN, epirubicin]",11.8,59.7,80.3,13,31,81,19,52,–
"C=C(C)[C@H]1Cc2c(ccc3c2O[C@@H]2COc4cc(OC)c(OC)cc4[C@@H]2C3=O)O1 [ROTENONE, Rotenone]",0.0,0.0,–,–,–,–,–,–,"CC50 at 24 h ([1]; CM, 24 HR, read-out: Total GSH TC50): 7 µM; CC50 at 24 h ([2]; H4IIE, 24 HR exposure, read-out: Cell Number TC50): 0.04 µM; CC50 at 24 h (MTT reduction; H4IIE, 24 HR exposure, read-out: MTT TC50): 0.07 µM; CC50 at 24 h (Intracellular ATP levels; rat cardiomyocytes (CM), 24 HR exposure, read-out: ATP TC50): 8 µM; CC50 at 24 h ([3]; H4IIE, 24 HR, read-out: Total GSH TC50): 0.05 µM"
"Nc1nc(NC2CC2)c2ncn([C@H]3C=C[C@@H](CO)C3)c2n1 [ABACAVIR, abacavir]",104.8,97.6,–,> 300,> 300,> 300,165,213,–
"Cc1cccc(C)c1OCC(=O)N[C@@H](Cc1ccccc1)[C@@H](O)C[C@H](Cc1ccccc1)NC(=O)[C@H](C(C)C)N1CCCNC1=O [LOPINAVIR, lopinavir]",82.1,98.0,16.2,69,> 300,184,72,99,–
"CC(=O)[C@]1(O)Cc2c(O)c3c(c(O)c2[C@@H](O[C@H]2C[C@H](N)[C@H](O)[C@H](C)O2)C1)C(=O)c1ccccc1C3=O [IDARUBICIN, idarubicin]",0.0,0.8,–,< 1,4,3,2,4,–
"O=C1Nc2ccc(Cl)cc2[C@@](C#CC2CC2)(C(F)(F)F)O1 [EFAVIRENZ, efavirenz]",70.1,89.0,21.3,83,169,161,75,170,–
"CC[C@@]1(O)C(=O)OCc2c1cc1n(c2=O)Cc2cc3ccccc3nc2-1 [CAMPTOTHECIN, Camptothecin]",26.0,23.6,–,–,–,–,–,–,"CC50 at 24 h [1, 6]: > 300 µM; CC50 at 24 h [2, 7]: 4 µM; CC50 at 24 h (MTT reduction; [8]): 1 µM; CC50 at 24 h (Intracellular ATP levels; [9]): > 300 µM; CC50 at 24 h [3, 10]: 3 µM"

# — patent US7615361B2, “Toxicity screening methods” (Ceetox, Inc., priority 2006, dated 2009)
